# Test results as given in patent US20230278972A1, “SUBSTITUTED HALOALKYL SULFONANILIDE HERBICIDES” (FMC Corporation, priority 2020, published 2023).
# Columns and labels:
# Assay type in all cases: in vivo
# [1] = test system: barnyardgrass (Echinochloa crus-galli); assay: Test A preemergence, barnyardgrass; conditions: Preemergence; for Barnyardgrass plant response rating: 125 g ai/ha, visual injury on 0 to 100 scale (0 no effect, 100 complete control), approximately 10 days; for Plant response rating, Barnyardgrass: 500 g ai/ha, 0 to 100 scale (0 no effect, 100 complete control)
# Procedure, shortened: (§1)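 Seeds are sown in loam mixed with sand and sprayed on the soil surface right after planting for the preemergence test. Postemergence pots are sprayed once seedlings reach 2 to 10 cm at the one- to two-leaf stage. The same surfactant-containing, non-phytotoxic solvent formulation serves both.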
# kochia (Bassia scoparia) [2] = assay: Test A preemergence, kochia; conditions: Preemergence; for Kochia plant response rating: 125 g ai/ha, visual injury on 0 to 100 scale (0 no effect, 100 complete control), approximately 10 days; for Plant response rating, Kochia: 500 g ai/ha, 0 to 100 scale (0 no effect, 100 complete control)
# Procedure, shortened: as §1
# [3] = test system: ragweed (common ragweed, Ambrosia artemisiifolia); assay: Test A preemergence, ragweed; conditions: Preemergence; for Ragweed plant response rating: 125 g ai/ha, visual injury on 0 to 100 scale (0 no effect, 100 complete control), approximately 10 days; for Plant response rating, Ragweed: 500 g ai/ha, 0 to 100 scale (0 no effect, 100 complete control)
# Procedure, shortened: as §1
# [4] = test system: Ryegrass, Italian (Italian ryegrass, Lolium multiflorum); assay: Test A preemergence, Ryegrass, Italian; conditions: Preemergence; for Ryegrass, Italian plant response rating: 125 g ai/ha, visual injury on 0 to 100 scale (0 no effect, 100 complete control), approximately 10 days; for Plant response rating, Ryegrass, Italian: 500 g ai/ha, 0 to 100 scale (0 no effect, 100 complete control)
# Procedure, shortened: as §1
# [5] = test system: Foxtail, Giant (giant foxtail, Setaria faberi); assay: Test A preemergence, Foxtail, Giant; conditions: Preemergence; for Foxtail, Giant plant response rating: 125 g ai/ha, visual injury on 0 to 100 scale (0 no effect, 100 complete control), approximately 10 days; for Plant response rating, Foxtail, Giant: 500 g ai/ha, 0 to 100 scale (0 no effect, 100 complete control)
# Procedure, shortened: as §1
# [6] = test system: pigweed (Amaranthus retroflexus); assay: Test A preemergence, pigweed; conditions: for Pigweed plant response rating: 125 g ai/ha, visual injury on 0 to 100 scale (0 no effect, 100 complete control), approximately 10 days; for Plant response rating, Pigweed: 500 g ai/ha, 0 to 100 scale (0 no effect, 100 complete control)
# Procedure, shortened: (§2)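 Directed soil spray at planting gave the preemergence treatment, while foliar application to one- to two-leaf seedlings (2–10 cm) gave the postemergence one; pots held a loam and sand mixture and chemicals were carried in a non-phytotoxic solvent with surfactant.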
# [7] = test system: barnyardgrass (Echinochloa crus-galli); assay: Test A postemergence, barnyardgrass; conditions: Postemergence, 0 to 100 scale (0 no effect, 100 complete control); for Plant response rating, Barnyardgrass: 125 g ai/ha, visual injury approx. 10 days; for Barnyardgrass plant response rating: 500 g ai/ha, visual injury vs untreated controls after approx. 10 days
# Procedure, shortened: as §2
# kochia (Bassia scoparia) [8] = assay: Test A postemergence, kochia; conditions: Postemergence, 0 to 100 scale (0 no effect, 100 complete control); for Plant response rating, Kochia: 125 g ai/ha, visual injury approx. 10 days; for Kochia plant response rating: 500 g ai/ha, visual injury vs untreated controls after approx. 10 days
# Procedure, shortened: as §1
# [9] = test system: ragweed (common ragweed, Ambrosia artemisiifolia); assay: Test A postemergence, ragweed; conditions: Postemergence, 0 to 100 scale (0 no effect, 100 complete control); for Plant response rating, Ragweed: 125 g ai/ha, visual injury approx. 10 days; for Ragweed plant response rating: 500 g ai/ha, visual injury vs untreated controls after approx. 10 days
# Procedure, shortened: as §1
# [10] = test system: Ryegrass, Italian (Italian ryegrass, Lolium multiflorum); assay: Test A postemergence, Ryegrass, Italian; conditions: Postemergence, 0 to 100 scale (0 no effect, 100 complete control); for Plant response rating, Ryegrass, Italian: 125 g ai/ha, visual injury approx. 10 days; for Ryegrass, Italian plant response rating: 500 g ai/ha, visual injury vs untreated controls after approx. 10 days
# Procedure, shortened: as §1
# [11] = test system: Foxtail, Giant (giant foxtail, Setaria faberi); assay: Test A postemergence, Foxtail, Giant; conditions: Postemergence, 0 to 100 scale (0 no effect, 100 complete control); for Plant response rating, Foxtail, Giant: 125 g ai/ha, visual injury approx. 10 days; for Foxtail, Giant plant response rating: 500 g ai/ha, visual injury vs untreated controls after approx. 10 days
# Procedure, shortened: as §1
# [12] = test system: pigweed (Amaranthus retroflexus); assay: Test A postemergence, pigweed; conditions: Postemergence, 0 to 100 scale (0 no effect, 100 complete control); for Plant response rating, Pigweed: 125 g ai/ha, visual injury approx. 10 days; for Pigweed plant response rating: 500 g ai/ha, visual injury vs untreated controls after approx. 10 days
# Procedure, shortened: as §1
# [13] = test system: wheat (Triticum aestivum); assay: Test A postemergence, wheat; conditions: Postemergence, 0 to 100 scale (0 no effect, 100 complete control); for Plant response rating, Wheat: 125 g ai/ha, visual injury approx. 10 days; for Wheat plant response rating: 500 g ai/ha, visual injury vs untreated controls after approx. 10 days
# Procedure, shortened: as §2
# corn (Zea mays) = assay: Test A postemergence, corn; conditions: Postemergence, 0 to 100 scale (0 no effect, 100 complete control); for Plant response rating, Corn: 125 g ai/ha, visual injury approx. 10 days; for Corn plant response rating: 500 g ai/ha, visual injury vs untreated controls after approx. 10 days
# Procedure, shortened: as §1
# [14] = test system: blackgrass (Alopecurus myosuroides); assay: Test A postemergence, blackgrass; conditions: Postemergence, 0 to 100 scale (0 no effect, 100 complete control); for Plant response rating, Blackgrass: 125 g ai/ha, visual injury approx. 10 days; for Blackgrass plant response rating: 500 g ai/ha, visual injury vs untreated controls after approx. 10 days
# Procedure, shortened: as §1
# [15] = test system: galium (catchweed bedstraw, Galium aparine); assay: Test A postemergence, galium; conditions: Postemergence, 0 to 100 scale (0 no effect, 100 complete control); for Plant response rating, Galium: 125 g ai/ha, visual injury approx. 10 days; for Galium plant response rating: 500 g ai/ha, visual injury vs untreated controls after approx. 10 days
# Procedure, shortened: as §2
SMILES,Barnyardgrass plant response rating [1],"Plant response rating, Barnyardgrass [1]",Kochia plant response rating (kochia (Bassia scoparia) [2]),"Plant response rating, Kochia (kochia (Bassia scoparia) [2])",Ragweed plant response rating [3],"Plant response rating, Ragweed [3]","Ryegrass, Italian plant response rating [4]","Plant response rating, Ryegrass, Italian [4]","Foxtail, Giant plant response rating [5]","Plant response rating, Foxtail, Giant [5]",Pigweed plant response rating [6],"Plant response rating, Pigweed [6]","Plant response rating, Barnyardgrass [7]",Barnyardgrass plant response rating [7],"Plant response rating, Kochia (kochia (Bassia scoparia) [8])",Kochia plant response rating (kochia (Bassia scoparia) [8]),"Plant response rating, Ragweed [9]",Ragweed plant response rating [9],"Plant response rating, Ryegrass, Italian [10]","Ryegrass, Italian plant response rating [10]",further results
CCn1nc(Cl)cc(-c2cc(N(S(C)(=O)=O)S(=O)(=O)C(F)(F)F)c(C)cc2C)c1=O [Compound 45],90,100,70,100,60,80,80,100,100,100,60,90,20,70,10,50,20,70,50,90,"Plant response rating, Foxtail, Giant [11]: 0; Foxtail, Giant plant response rating [11]: 60; Plant response rating, Pigweed [12]: 30; Pigweed plant response rating [12]: 70; Plant response rating, Wheat [13]: 40; Wheat plant response rating [13]: 70; Plant response rating, Corn (corn (Zea mays)): 10; Corn plant response rating (corn (Zea mays)): 30; Plant response rating, Blackgrass [14]: 0; Blackgrass plant response rating [14]: 60; Plant response rating, Galium [15]: 10; Galium plant response rating [15]: 40"
Cc1cc(C)c(N(S(C)(=O)=O)S(=O)(=O)C(F)(F)F)cc1-c1cc(Cl)nn(C)c1=O [Compound 46],0,70,0,0,0,0,50,80,90,90,0,50,0,0,0,0,0,0,0,0,"Plant response rating, Foxtail, Giant [11]: 0; Foxtail, Giant plant response rating [11]: 0; Plant response rating, Pigweed [12]: 0; Pigweed plant response rating [12]: 0; Plant response rating, Wheat [13]: 0; Wheat plant response rating [13]: 50; Plant response rating, Corn (corn (Zea mays)): 0; Corn plant response rating (corn (Zea mays)): 0; Plant response rating, Blackgrass [14]: 0; Blackgrass plant response rating [14]: 0; Plant response rating, Galium [15]: 0; Galium plant response rating [15]: 0"
